# Legend:
# [1] = target: T1, Bile acid receptor (Homo sapiens) (UniProt Q96RI1); experiment: Agonist activity at human FXR transfected in african green monkey CV1 cells by luciferase reporter gene transient transfection assay relative to GW-4064; format: functional, cell-based; conditions: CV-1
# T1 sequence (whole entry): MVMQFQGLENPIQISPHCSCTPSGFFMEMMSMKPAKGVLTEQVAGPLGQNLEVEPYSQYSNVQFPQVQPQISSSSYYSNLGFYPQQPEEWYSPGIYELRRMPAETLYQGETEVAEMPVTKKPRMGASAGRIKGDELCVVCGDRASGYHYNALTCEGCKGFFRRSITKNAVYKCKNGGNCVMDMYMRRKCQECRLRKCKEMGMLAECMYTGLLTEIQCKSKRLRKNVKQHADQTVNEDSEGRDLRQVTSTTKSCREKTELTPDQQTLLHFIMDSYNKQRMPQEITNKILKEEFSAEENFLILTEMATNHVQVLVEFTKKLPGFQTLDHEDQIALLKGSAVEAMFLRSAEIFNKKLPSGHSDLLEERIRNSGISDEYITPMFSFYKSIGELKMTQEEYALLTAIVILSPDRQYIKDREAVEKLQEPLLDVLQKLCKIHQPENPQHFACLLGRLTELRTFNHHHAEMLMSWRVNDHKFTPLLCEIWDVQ
# Bile acid receptor [2] = target: T2, Bile acid receptor (Homo sapiens, UniProt Q96RI1); experiment: Agonist activity at human FXR assessed as SRC1 coactivator peptide recruitment by cell free FRET assay; format: functional
# T2 sequence (Q96RI1 whole entry): T1 sequence (whole entry)
# [3] = target: T1, Bile acid receptor (Homo sapiens); experiment: Agonist activity at human FXR assessed as SRC1 peptide interaction with receptor ligand binding domain by FRET assay relative to GW-4064
# Bile acid receptor [4] = target: T2, Bile acid receptor; experiment: Agonist activity at human FXR assessed as SRC1 peptide interaction with receptor ligand binding domain by FRET assay
# Bile acid receptor [5] = target: T2, Bile acid receptor; experiment: Agonist activity at human FXR transfected in african green monkey CV1 cells by luciferase reporter gene transient transfection assay; format: functional, cell-based, CV-1
# [6] = Oral bioavailability in rat; format: ADME, organism-based; conditions: in vivo
# [7] = Terminal half life in iv dosed rat; format: ADME, organism-based; conditions: in vivo, read-out: beta t1/2
# [8] = Volume of distribution at steady state in iv dosed rat; format: ADME, organism-based; conditions: in vivo, read-out: Vdss
# [9] = Total clearance in iv dosed rat; format: ADME, organism-based; conditions: in vivo
SMILES,%max [1] [%],EC50 (Bile acid receptor [2]) [nM],%max [3] [%],EC50 (Bile acid receptor [4]) [nM],EC50 (Bile acid receptor [5]) [nM],bioavailability [6] [%],half-life [7] [h],Vd [8] [L/kg],clearance [9] [mL/min/kg]
CC(C)c1onc(COc2ccccc2Cl)c1COc1ccc(/C=C/c2cccc(C(=O)O)c2)c(Cl)c1,71,82,82,460,–,–,–,–,–
CC(C)c1onc(COc2c(Cl)cc(Cl)cc2Cl)c1COc1ccc(/C=C/c2cccc(C(=O)O)c2)c(Cl)c1,68,–,101,58,200,–,–,–,–
CC(C)c1onc(CCc2c(Cl)cccc2Cl)c1COc1ccc(/C=C/c2cccc(C(=O)O)c2)c(Cl)c1,104,–,105,150,48,–,–,–,–
CC(C)c1onc(COc2c(F)cc(F)cc2F)c1COc1ccc(/C=C/c2cccc(C(=O)O)c2)c(Cl)c1,95,–,106,110,300,–,–,–,–
CC(C)c1onc(COc2ccc(Cl)cc2Cl)c1COc1ccc(/C=C/c2cccc(C(=O)O)c2)c(Cl)c1,39,–,72,620,690,–,–,–,–
CC(C)c1onc(COc2cc(Cl)ccc2Cl)c1COc1ccc(/C=C/c2cccc(C(=O)O)c2)c(Cl)c1,37,–,83,1000,900,–,–,–,–
CC(C)c1onc(COc2ccc(Cl)c(Cl)c2)c1COc1ccc(/C=C/c2cccc(C(=O)O)c2)c(Cl)c1,–,> 10000,57,1100,–,–,–,–,–
CC(C)c1onc(CCCc2ccccc2)c1COc1ccc(/C=C/c2cccc(C(=O)O)c2)c(Cl)c1,68,–,44,4400,1200,–,–,–,–
CC(C)c1onc(CCc2ccccc2)c1COc1ccc(/C=C/c2cccc(C(=O)O)c2)c(Cl)c1,110,–,96,320,93,–,–,–,–
CC(C)c1onc(-c2c(Cl)cncc2Cl)c1COc1ccc(/C=C/c2cccc(C(=O)O)c2)c(Cl)c1,88,–,97,150,52,7.8,0.867,1.1,48
CC(C)c1onc(-c2c(Cl)cccc2Cl)c1COc1ccc(/C=C/c2cccc(C(=O)O)c2)c(Cl)c1,100,–,100,–,–,–,–,–,36
O=C(O)c1cccc(/C=C/c2ccc(OCc3c(-c4c(Cl)cccc4Cl)noc3C3CCCC3)cc2Cl)c1,75,–,81,560,240,–,–,–,–
CC(C)c1onc(COc2ccc3ccccc3c2)c1COc1ccc(/C=C/c2cccc(C(=O)O)c2)c(Cl)c1,27,–,65,930,2300,–,–,–,–
CC[C@H](C)c1onc(-c2c(Cl)cccc2Cl)c1COc1ccc(/C=C/c2cccc(C(=O)O)c2)c(Cl)c1,99,–,96,190,290,–,–,–,–
CC(C)c1onc(COc2c(Cl)cc(F)cc2Cl)c1COc1ccc(/C=C/c2cccc(C(=O)O)c2)c(Cl)c1,56,540,112,87,–,1.9,2.33,1.4,15
CC(C)c1onc(COc2ccc(Cl)cc2)c1COc1ccc(/C=C/c2cccc(C(=O)O)c2)c(Cl)c1,53,–,58,450,1300,–,–,–,–
CC(C)c1onc(COc2cccc(Cl)c2)c1COc1ccc(/C=C/c2cccc(C(=O)O)c2)c(Cl)c1,42,2000,51,310,–,–,–,–,–
CC(C)c1onc(COc2c(F)cccc2Cl)c1COc1ccc(/C=C/c2cccc(C(=O)O)c2)c(Cl)c1,121,–,103,74,290,–,–,–,–
CC(C)c1onc(CSc2nnnn2C)c1COc1ccc(/C=C/c2cccc(C(=O)O)c2)c(Cl)c1,45,–,59,930,2100,–,–,–,–
CC(C)c1onc(Cc2ccccc2)c1COc1ccc(/C=C/c2cccc(C(=O)O)c2)c(Cl)c1,120,–,67,550,230,–,–,–,–

SMILES,%max [1] [%],EC50 (Bile acid receptor [2]) [nM],%max [3] [%],EC50 (Bile acid receptor [4]) [nM],EC50 (Bile acid receptor [5]) [nM],bioavailability [6] [%],half-life [7] [h],Vd [8] [L/kg],clearance [9] [mL/min/kg]
CC[C@@H](C)c1onc(-c2c(Cl)cccc2Cl)c1COc1ccc(/C=C/c2cccc(C(=O)O)c2)c(Cl)c1,105,–,100,105,93,–,–,–,–
CC(C)c1onc(COc2ccccc2)c1COc1ccc(/C=C/c2cccc(C(=O)O)c2)c(Cl)c1,27,–,55,1100,1200,–,–,–,–
CC(C)c1onc([C@H]2C[C@@H]2c2c(Cl)cccc2Cl)c1COc1ccc(/C=C/c2cccc(C(=O)O)c2)c(Cl)c1 (relative stereo),–,> 10000,38,2000,–,–,–,–,–
CC(C)c1onc(CNc2c(Cl)cccc2Cl)c1COc1ccc(/C=C/c2cccc(C(=O)O)c2)c(Cl)c1,70,–,104,72,140,2.6,2.33,2.1,16
Cc1cc(Cl)cc(C)c1OCc1noc(C(C)C)c1COc1ccc(/C=C/c2cccc(C(=O)O)c2)c(Cl)c1,66,–,99,130,110,–,–,–,–
O=C(O)c1cccc(/C=C/c2ccc(OCc3c(-c4c(Cl)cccc4Cl)noc3C3CCC3)cc2Cl)c1,100,–,67,410,140,–,–,–,–
CC(C)c1onc(COc2c(F)cccc2F)c1COc1ccc(/C=C/c2cccc(C(=O)O)c2)c(Cl)c1,112,–,100,2200,720,–,–,–,–
CC(C)c1onc(CO)c1COc1ccc(/C=C/c2cccc(C(=O)O)c2)c(Cl)c1,–,–,22,7800,> 10000,–,–,–,–
CC(C)c1onc(COc2cccc(Cl)c2Cl)c1COc1ccc(/C=C/c2cccc(C(=O)O)c2)c(Cl)c1,38,–,82,480,630,–,–,–,–
CCC(CC)c1onc(-c2c(Cl)cccc2Cl)c1COc1ccc(/C=C/c2cccc(C(=O)O)c2)c(Cl)c1,71,280,82,2200,–,–,–,–,–
Cc1cccc(C)c1OCc1noc(C(C)C)c1COc1ccc(/C=C/c2cccc(C(=O)O)c2)c(Cl)c1,118,–,110,17,56,–,–,–,–
CC(C)c1onc(COc2cccc3ccccc23)c1COc1ccc(/C=C/c2cccc(C(=O)O)c2)c(Cl)c1,34,–,79,960,1200,–,–,–,–
CC(C)c1onc(CS(=O)(=O)c2c(Cl)cccc2Cl)c1COc1ccc(/C=C/c2cccc(C(=O)O)c2)c(Cl)c1,68,–,100,150,390,–,–,–,–
CC(C)c1onc(CSc2c(Cl)cccc2Cl)c1COc1ccc(/C=C/c2cccc(C(=O)O)c2)c(Cl)c1,86,–,110,51,100,–,–,–,–
CC(C)c1onc(COc2cc(Cl)cc(Cl)c2)c1COc1ccc(/C=C/c2cccc(C(=O)O)c2)c(Cl)c1,–,> 10000,40,1100,–,–,–,–,–
CC(C)c1onc(COC(C)(C)C)c1COc1ccc(/C=C/c2cccc(C(=O)O)c2)c(Cl)c1,132,–,77,660,600,–,–,–,–
CC(C)c1onc(CNc2c(Cl)cncc2Cl)c1COc1ccc(/C=C/c2cccc(C(=O)O)c2)c(Cl)c1,31,–,68,400,420,–,–,–,–
CC(C)c1onc(COc2c(Cl)cccc2Cl)c1COc1ccc(/C=C/c2cccc(C(=O)O)c2)c(Cl)c1,89,–,102,78,89,9.2,2.17,1.2,20
Cc1cccc(Cl)c1OCc1noc(C(C)C)c1COc1ccc(/C=C/c2cccc(C(=O)O)c2)c(Cl)c1,111,–,106,48,150,–,–,–,–

# From ChEMBL document CHEMBL1136905, “Substituted isoxazole analogs of farnesoid X receptor (FXR) agonist GW4064” (Bioorg Med Chem Lett, 2009)
